Assay results: patent publication US7153881B2, “Compounds acting as melanocortin receptor ligands” (Acure Pharma AB, priority 2001, dated 2006)

Experiments:
[1] = target: T1, MC4 (Homo sapiens, UniProt P32245); test: Affinity for the MC4-receptors, binding assay using I125-NDP-αMSH as ligand
Procedure: (§1) Test 2. Affinity for the MC3-receptors, the MC4-receptors and the MC5-receptors
(§2) The binding assays were carried out essentially as described by Szardenings et al, J Biol Chem 1997; 272; 27943–27948 and Schiöth et al, FEBS Lett 1997; 410; 223–228 using I125-NDP-αMSH as ligand.

[2] = target: T2, MC3 (Homo sapiens, UniProt P41968); test: Affinity for the MC3-receptors, binding assay using I125-NDP-αMSH as ligand
Procedure: as §1, §2

[3] = target: MC5-receptors (Homo sapiens, UniProt P33032); test: Affinity for the MC5-receptors, binding assay using I125-NDP-αMSH as ligand
Procedure: as §1, §2

[4] = target: T2, MC3; test: Stimulation of cAMP, MC3; type: cell-based; details: response given relative to α-MSH
Procedure: (§3) The stimulation of cAMP was carried out essentially as described by Schiöth et al, Br J Pharmacol 1998; 124; 75–82, however, the response is given relative to α-MSH.

[5] = target: MC1 (Homo sapiens, UniProt Q01726); test: Stimulation of cAMP, MC1; type: cell-based; details: response given relative to α-MSH
Procedure: as §3

[6] = target: T1, MC4; test: Stimulation of cAMP, MC4; type: cell-based; details: response given relative to α-MSH
Procedure: as §3

Sequence of MC5-receptors (P33032 whole entry): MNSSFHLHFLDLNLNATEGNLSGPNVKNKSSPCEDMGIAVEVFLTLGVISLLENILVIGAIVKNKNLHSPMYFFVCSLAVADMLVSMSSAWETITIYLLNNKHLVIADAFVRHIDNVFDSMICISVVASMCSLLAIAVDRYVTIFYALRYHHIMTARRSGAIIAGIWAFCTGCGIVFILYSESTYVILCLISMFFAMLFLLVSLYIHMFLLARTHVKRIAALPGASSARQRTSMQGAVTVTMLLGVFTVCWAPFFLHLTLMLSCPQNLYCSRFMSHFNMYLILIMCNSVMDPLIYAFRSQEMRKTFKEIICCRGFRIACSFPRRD
Sequence of MC1 (Q01726 whole entry): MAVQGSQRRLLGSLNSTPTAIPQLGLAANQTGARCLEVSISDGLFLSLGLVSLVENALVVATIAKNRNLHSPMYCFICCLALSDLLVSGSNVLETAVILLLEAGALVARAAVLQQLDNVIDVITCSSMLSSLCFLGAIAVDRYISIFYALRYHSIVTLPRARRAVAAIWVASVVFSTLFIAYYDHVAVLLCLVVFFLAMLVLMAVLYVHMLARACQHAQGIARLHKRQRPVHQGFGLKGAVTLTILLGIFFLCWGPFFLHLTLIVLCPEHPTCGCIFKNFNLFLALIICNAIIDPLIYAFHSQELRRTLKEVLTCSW
T1 sequence (P32245 whole entry): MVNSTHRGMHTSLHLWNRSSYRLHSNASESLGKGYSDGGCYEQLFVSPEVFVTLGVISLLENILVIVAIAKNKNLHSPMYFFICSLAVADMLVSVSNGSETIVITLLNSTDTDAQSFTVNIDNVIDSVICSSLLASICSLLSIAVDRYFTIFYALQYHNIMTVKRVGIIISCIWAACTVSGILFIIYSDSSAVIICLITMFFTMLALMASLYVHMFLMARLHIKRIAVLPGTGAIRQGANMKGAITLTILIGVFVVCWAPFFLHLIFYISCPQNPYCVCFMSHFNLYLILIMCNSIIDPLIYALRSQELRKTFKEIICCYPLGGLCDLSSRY
T2 sequence (P41968 whole entry): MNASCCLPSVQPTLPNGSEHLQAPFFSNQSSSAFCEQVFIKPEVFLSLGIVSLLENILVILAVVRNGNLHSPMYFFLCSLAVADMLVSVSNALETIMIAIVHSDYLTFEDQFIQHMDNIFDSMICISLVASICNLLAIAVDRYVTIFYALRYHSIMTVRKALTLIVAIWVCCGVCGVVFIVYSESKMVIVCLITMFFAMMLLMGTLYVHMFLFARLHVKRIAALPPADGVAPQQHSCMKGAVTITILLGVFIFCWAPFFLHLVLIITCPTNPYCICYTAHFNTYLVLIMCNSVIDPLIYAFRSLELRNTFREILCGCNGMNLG

Structure (SMILES) | melting point [°C] | also measured
N=C(NN=Cc1ccc([N+](=O)[O-])cc1[N+](=O)[O-])Nc1ccccc1 | 180 to 190 | 
COc1ccc(C=NNC(=N)NCc2ccccc2)c(Cl)c1OC [Compound 1, N-(2-chloro-3,4-dimethoxybenzylideneamino)-N′-benzylguanidine] | 215 to 217 | 
COc1ccc(C=NNC(=Nc2ccccc2)NO)c(Cl)c1OC [Compound 2, N-(2-chloro-3,4-dimethoxybenzylideneamino)-N′-hydroxy-N″-phenylguanidine] | 167 to 169 | 
COc1ccc(C=NNC(=N)NCCc2ccccc2)cc1 [Compound 10, N-(4-methoxybenzylideneamino)-N′-(2-phenylethyl)guanidine] | 126 to 128 | 
N=C(NCc1cccc2ccccc12)NN=Cc1ccncc1 [Compound 11, N-(pyrid-4-yl-methylideneamino)-N′-(naphthalen-1-yl-methyl)guanidine] | 260 to 262 | 
N=C(NCCc1ccccc1)NN=Cc1c[nH]c2ccccc12 [Compound 12, N-(1H-indol-3-ylmethylideneamino)-N′-(2-phenylethyl)guanidine] | 207 to 209 | 
N=C(N)N(Cc1cccc2ccccc12)N=Cc1c[nH]c2ccccc12 [Compound 13, N-(1H-indol-3-yl-methylideneamino)-N-(naphthalen-1-ylmethyl)guanidine] | 213 to 215 | 
N=C(NN=Cc1c[nH]c2ccccc12)NN=Cc1c[nH]c2ccccc12 [Compound 14, N,N′-bis[1H-indol-3-yl-methylideneamino]guanidine] | 296 to 298 | 
COc1ccc(C=NNC(=N)Nc2ccccc2)c(Cl)c1OC [Compound 16, N-(2-chloro-3,4-dimethoxybenzylideneamino)-N′-phenylguanidine] | 179 to 181 | 
N=C(NN=Cc1cc([N+](=O)[O-])ccc1F)Nc1ccccc1 [Compound 17, N-(2-fluoro-5-nitrobenzylideneamino)-N′-phenylguanidine] | 191 to 193 | 
N=C(NCc1ccccc1)NN=Cc1ccc(O)cc1 [Compound 18, N-(4-hydroxybenzylideneamino)-N′-benzylguanidine] | 192 to 194 | 

More lines, main results first:

melting point [°C] | Structure (SMILES) | also measured
241 to 243 | N=C(NCCc1ccccc1)NN=Cc1ccc([N+](=O)[O-])cc1 [Compound 20, N-(4-nitrobenzylideneamino)-N′-(2-phenylethyl)guanidine] | 
244 to 246 | N=C(NCCc1ccccc1)NN=Cc1ccc2ccccc2c1 [Compound 21, N-(naphthalen-2-yl-methylideneamino)-N′-(2-phenylethyl)guanidine] | 
218 to 220 | N=C(NN=Cc1ccc2ccccc2c1)Nc1ccc2ccccc2c1 [Compound 23, N-(naphthalen-2-yl-methylideneamino)-N′-naphthalen-2-ylguanidine] | 
239 to 241 | N=C(NCc1ccccc1)NN=Cc1ccc([N+](=O)[O-])cc1 [Compound 24, N-(4-Nitrobenzylideneamino)-N′-benzylguanidine] | 
154 to 155 | N=C(NCCc1ccccc1)NN=Cc1ccccc1Br [Compound 27, N-(2-Bromobenzylideneamino)-N′-phenethylguanidine] | Ki [1]: 1.35 µM; Ki [2]: 7.96 µM; Ki [3]: 5.8 µM; cAMP agonist/plateau stim. α-MSH (%) MC3 [4]: 9%; cAMP agonist/plateau stim. α-MSH (%) MC1 [5]: 12%; cAMP agonist/plateau stim. α-MSH (%) MC4 [6]: 97%
149 to 152 | N=C(NN=Cc1ccccc1Br)Nc1ccccc1 [Compound 28, N-(2-Bromobenzylideneamino)-N′-phenylguanidine] | 
190 to 192 | N=C(NCc1ccccc1)NN=Cc1cccn1-c1ccc(Cl)cc1 [Compound 29, N-[1-(4-Chlorophenyl) 1H-pyrrol-2-ylmethyleneamino]-N′-benzylguanidine] | Ki [1]: 0.61 µM; Ki [3]: 1.32 µM; cAMP agonist/plateau stim. α-MSH (%) MC3 [4]: 3%; cAMP agonist/plateau stim. α-MSH (%) MC1 [5]: 10%; cAMP agonist/plateau stim. α-MSH (%) MC4 [6]: 111%
253 to 255 | N=C(NN=Cc1cccc2ccccc12)NN=Cc1cccc2ccccc12 [Compound 30, N,N′-Di-(naphthalen-1-ylmethyleneamino)guanidine] | 
228 to 230 | COc1ccc(C=NNC(=N)NN=Cc2ccc(OC)c(OC)c2Cl)c(Cl)c1OC [Compound 32, N,N′-Di-(2-Chloro-3,4-Dimethoxybenzylideneamino)guanidine] | 
175 to 177 | N=C(NCCc1ccccc1)NN=CC=Cc1ccccc1 [Compound 33] | Ki [1]: 3.59 µM; Ki [2]: 5.36 µM; Ki [3]: 8.23 µM; cAMP agonist/plateau stim. α-MSH (%) MC3 [4]: 4%; cAMP agonist/plateau stim. α-MSH (%) MC1 [5]: 8%; cAMP agonist/plateau stim. α-MSH (%) MC4 [6]: 161%
221 to 223 | N=C(NN=Cc1cccn1-c1ccc(Cl)cc1)NN=Cc1cccn1-c1ccc(Cl)cc1 [Compound 34, N,N′-Di-(1-(4-Chlorophenyl)-1H-pyrrol-2-ylmethyleneamino)guanidine] | 
217 to 219 | CNC(=N)NN=Cc1cc([N+](=O)[O-])ccc1F [Compound 35, N-(2-Fluoro-5-nitrobenzylideneamino)-N′-methylguanidine] | 
207 to 210 | CNC(=N)NN=Cc1ccc(OC)c(OC)c1Cl [Compound 37, N-(2-Chloro-3,4-dimethoxybenzylideneamino)-N′-methylguanidine] | 
